Source: patent publication US4434788A, “Enhancer of anti-tumor effect” (Yamasa Shoyu Kabushiki Kaisha, priority 1980, dated 1984)

What was measured:
[1] = test system: EMT-6 tumors; assay: Radiosensitizing effect on EMT-6 tumor in mouse, cure percentage and TCD50; type: in vivo, BALB/c-strain female mice; conditions: 100 mg/kg i.p. after irradiation; for Cure number/Number treated / Cure percentage: >90 days
Procedure: EMT-6 tumor cells (2×10^5) were inoculated intradermally into the right thighs of BALB/c-strain female mice (8 weeks old). When the tumor sizes reached 5.5 to 8.0 mm after inoculation of the tumor cells, irradiation was locally carried out with 1,000 rad to 2,700 rad of 32 MeV electron beam under no anesthesia, and thereafter 3'-dAdo and 3'-dGuo, each dissolved in physiological saline solution, were administered intraperitoneally in a dose of 100 mg/kg. After the treatments, observation was continued for longer than 90 days, and the cure percentages were determined for comparison with the control group. [formula]
(2) TCD50 =50% Tumor control dose

[2] = test system: potentially lethal damage repair; assay: PLDR-inhibiting / radiosensitizing activity (general statements)
[3] = test system: adenosinedeaminase; conditions: in bodies; cited from earlier work
[4] = LD50 (i.p.) of 3'-dAdo; conditions: in vivo, ip

Structure (SMILES): Nc1ncnc2c1ncn2[C@@H]1O[C@H](CO)C[C@H]1O [3'-dAdo, 3'-deoxyadenosine, reference compound]
- TCD50 (50% Tumor control dose) ([1]; radiation doses given in rad, control 2400): 1600 rad
- TCD50 ratio ([1]; relative to control 1.0): 0.67
- Cure number/Number treated ([1]; 1,000 rad, control 1/23): 3/18
- Cure percentage ([1]; 1,000 rad, control 4%): 17%
- Cure number/Number treated ([1]; 1,500 rad, control 8/44): 14/29
- Cure percentage ([1]; 1,500 rad, control 18%): 48%
- Cure number/Number treated ([1]; 2,100 rad, control 9/24): 11/14
- Cure percentage ([1]; 2,100 rad, control 38%): 79%
- Cure number/Number treated ([1]; 2,700 rad, control 13/28): 10/15
- Cure percentage ([1]; 2,700 rad, control 47%): 67%
- Radiosensitizing activity [2]: excellent radiosensitizing activities
- PLDR-inhibiting ability of 3'-dAdo in combination with 2'-deoxycoformycin ([2]; combination of 3'-dAdo with 2'-deoxycoformycin): can be strengthened and prolonged
- Inactivation by adenosinedeaminase [3]: readily inactivated by adenosinedeaminase in bodies
- LD50 [4]: 280 mg/kg
